# Assay results taken from patent US7723091B2 (priority 1999, dated 2010).
# Read-outs that look alike come from different tables or passages of the source. Marks after values point to notes of the source that are not given here.
# Legend:
# Cryptosporidium = test: SCID mouse model of Cryptosporidium infection; conditions: for Parasite load (SD) Day 21 / Parasite load (SD) Day 28 / Parasite load (SD) Day 31 / Percent Inhibition Day 21 / Percent Inhibition Day 28 / Percent Inhibition Day 31: feces
# [1] = test system: E. acervulina, E. maxima, and C. perfringens; format: in vivo, broiler chickens; conditions: Trial III; for Feed Consumption Day 0-21 / Feed Consumption Day 8-21 / Feed Conversion Day 0-21 / Feed Conversion Day 8-21 / Lesion Scores E. acer. / Lesion Scores E. max. / Live Wt. Day 21 / Weight AF/G Treatment (weight adjusted feed conversion) / Weight Gain Day 0-21 / Weight Gain Day 8-21: infected
# [2] = test system: E. acervulina, E. maxima and Clostridium perfringens; format: in vivo, broiler chickens; conditions: Trial IV; infected; PI-PLC 30 U/lb, Man. 121 MU/ton, BMD 50 g/ton, salinomycin 60 g/ton
# [3] = test system: Eimeria tenella sporozoites; test: In vitro invasion of BHK cells by Eimeria tenella sporozoites; format: cell-based
# Protocol: (§1) Eineria acervulina sporozoites or Eimeria tenella sporozoites and cultured baby hamster kidney (BHK) cells were prepared by published methods. See Augustine, Avian and Poultry Biology Reviews 1:113-122, 2000. For cell pretreatment, cell cultures were overlaid with dilutions of enzymes as described in Table 11, and examined for morphological changes from 5 to 45 min post overlay. After 45 minutes, the monolayer cultures were washed twice, then inoculated with untreated E. acervulina or E. tenella sporozoites. For application during infection, sporozoites were suspended in the appropriate dilution of the enzyme and inoculated immediately into the cell cultures. After 45 minutes incubation, cultures were fixed, stained, and the invasion was quantified.
# (§2) Observations were made looking for changes in gross morphology of sporozoites or cells due to enzyme treatment. At the enzyme levels used in these experiments, no morphological change was noted. The sporozoite invasion of the cultured cells was measured after the two methods of enzyme treatment, as well as without enzyme treatment, by histological staining and microscopy procedures. See Augustine, supra.
# [4] = test system: E. acervulina and Clostridium perfringens; format: in vivo, broiler chickens
# [5] = test system: Eimeria acervulina sporozoites; test: In vitro invasion of BHK cells by Eimeria acervulina sporozoites; format: cell-based
# Protocol: as §1, §2
# [6] = Group A, 90 U/lb in feed, Day 3
# [7] = Group A, 90 U/lb in feed, Day 7
# [8] = Group A, 90 U/lb in feed, Day 10
# [9] = Group A, 90 U/lb in feed, Day 14
# [10] = Group A, 90 U/lb in feed, Day 17
# [11] = Group A, 90 U/lb in feed, Day 21
# [12] = Group A, 90 U/lb in feed, Day 24
# [13] = Group B, 30 U/lb in feed, Day 3
# [14] = Group B, 30 U/lb in feed, Day 7
# [15] = Group B, 30 U/lb in feed, Day 10
# [16] = Group B, 30 U/lb in feed, Day 14
# [17] = Group B, 30 U/lb in feed, Day 17
# [18] = Group B, 30 U/lb in feed, Day 21
# [19] = Group B, 30 U/lb in feed, Day 24
# [20] = PI-PLC 10 U/lb (T5; T7 with mannanase 100 MU/ton)
# [21] = PI-PLC 30 U/lb (T6; T8 with mannanase 100 MU/ton; T10 with medication)
# [22] = Application of Enzyme During Infection, Test 1, recombinant PI-PLC 0.0261 U/mL
# [23] = Application of Enzyme During Infection, Test 2, B. cereus PI-PLC 0.0403 U/mL, recombinant 0.261 U/mL, listed as PI-PLC from Recombinant B. megateriaum
# [24] = Application of Enzyme During Infection, Test 2, recombinant PI-PLC 0.0261 U/mL
# [25] = Cell Pretreatment with Enzyme Followed by Wash, Test 1, B. cereus PI-PLC 0.0403 U/mL, recombinant 0.261 U/mL, mannanase 5100 U/mL, listed as PI-PLC from Recombinant B. megateriaum
# [26] = Cell Pretreatment with Enzyme Followed by Wash, Test 2, B. cereus PI-PLC 0.0403 U/mL, recombinant 0.261 U/mL, mannanase 5100 U/mL, listed as PI-PLC from Recombinant B. megateriaum
# [27] = Cell Pretreatment with Enzyme Followed by Wash, Test 2, recombinant PI-PLC 0.0261 U/mL
# [28] = Trial II T4 (Rec), T7 (Wt), infected, 10 U/lb
# [29] = Trial II T9, no infection challenge, 90 U/lb
substance,measurement,setting,value
phosphatidylinositol specific phospholipase C [Recombinant PI-PLC],Feed (g) consumed/mouse/day AVG,Cryptosporidium; [6],7.56 g
same,Weight (g) AVG,Cryptosporidium; [6],16.67 g
same,Feed (g) consumed/mouse/day AVG,Cryptosporidium; [7],8.31 g
same,Weight (g) AVG,Cryptosporidium; [7],16.95 g
same,Feed (g) consumed/mouse/day AVG,Cryptosporidium; [8],8.55 g
same,Weight (g) AVG,Cryptosporidium; [8],17.29 g
same,Feed (g) consumed/mouse/day AVG,Cryptosporidium; [9],7.78 g
same,Weight (g) AVG,Cryptosporidium; [9],17.43 g
same,Feed (g) consumed/mouse/day AVG,Cryptosporidium; [10],8.52 g
same,Weight (g) AVG,Cryptosporidium; [10],17.64 g
same,Feed (g) consumed/mouse/day AVG,Cryptosporidium; [11],7.89 g
same,Weight (g) AVG,Cryptosporidium; [11],18.25 g
same,Feed (g) consumed/mouse/day AVG,Cryptosporidium; [12],9.79 g
same,Weight (g) AVG,Cryptosporidium; [12],18.2 g
same,Feed (g) consumed/mouse/day AVG,Cryptosporidium; [13],6.13 g
same,Weight (g) AVG,Cryptosporidium; [13],17.055 g
same,Feed (g) consumed/mouse/day AVG,Cryptosporidium; [14],8.51 g
same,Weight (g) AVG,Cryptosporidium; [14],16.91 g
same,Feed (g) consumed/mouse/day AVG,Cryptosporidium; [15],7.93 g
same,Weight (g) AVG,Cryptosporidium; [15],17.08 g
same,Feed (g) consumed/mouse/day AVG,Cryptosporidium; [16],8.06 g
same,Weight (g) AVG,Cryptosporidium; [16],17.62 g
same,Feed (g) consumed/mouse/day AVG,Cryptosporidium; [17],8.53 g
same,Weight (g) AVG,Cryptosporidium; [17],17.84 g
same,Feed (g) consumed/mouse/day AVG,Cryptosporidium; [18],8.22 g
same,Weight (g) AVG,Cryptosporidium; [18],18.62 g
same,Feed (g) consumed/mouse/day AVG,Cryptosporidium; [19],8.3 g
same,Weight (g) AVG,Cryptosporidium; [19],18.63 g
same,reduction in parasite load in the treated groups,"Cryptosporidium; feces at 3, 4 and 4.5 weeks post-infection, 30 or 90 U/lb",34-54%
same,Parasite load (SD) Day 21,Cryptosporidium; 30 U/lb in feed,16.2 (4.7) oocysts/100 μl
same,Parasite load (SD) Day 28,Cryptosporidium; 30 U/lb in feed,23.4 (11)* oocysts/100 μl
same,Parasite load (SD) Day 31,Cryptosporidium; 30 U/lb in feed,74.3 (89.7)^+ oocysts/100 μl
same,Percent Inhibition Day 21,Cryptosporidium; 30 U/lb in feed,52.0%
same,Percent Inhibition Day 28,Cryptosporidium; 30 U/lb in feed,54.6%
same,Percent Inhibition Day 31,Cryptosporidium; 30 U/lb in feed,40.0%
same,Parasite load (SD) Day 21,Cryptosporidium; 90 U/lb in feed,22.7 (11.4) oocysts/100 μl
same,Parasite load (SD) Day 28,Cryptosporidium; 90 U/lb in feed,26.3 (14)* oocysts/100 μl
same,Parasite load (SD) Day 31,Cryptosporidium; 90 U/lb in feed,87.5 (52.9) oocysts/100 μl
same,Percent Inhibition Day 21,Cryptosporidium; 90 U/lb in feed,44.0%
same,Percent Inhibition Day 28,Cryptosporidium; 90 U/lb in feed,48.9%
same,Percent Inhibition Day 31,Cryptosporidium; 90 U/lb in feed,34.0%
same,improvement in AF/G worsening present in the infected control (T3 v. T1),"[1]; infected birds, mannanase 100 MU per ton, PI-PLC in the feed",33-41%
same,Feed Consumption Day 0-21,[1]; [20],10.456^cd
same,Feed Consumption Day 8-21,[1]; [20],8.228^abc
same,Feed Conversion Day 0-21,[1]; [20],1.560^bc
same,Feed Conversion Day 8-21,[1]; [20],1.591b^c
same,Lesion Scores E. acer.,[1]; [20],1.34^a
same,Lesion Scores E. max.,[1]; [20],1.19^bc
same,Live Wt. Day 21,[1]; [20],0.635^c
same,Weight AF/G Treatment (weight adjusted feed conversion),[1]; [20],1.512
same,Weight Gain Day 0-21,[1]; [20],0.594^c
same,Weight Gain Day 8-21,[1]; [20],0.477^b
same,Feed Consumption Day 0-21,[1]; [21],10.266^d
same,Feed Consumption Day 8-21,[1]; [21],7.982^c
same,Feed Conversion Day 0-21,[1]; [21],1.572^b
same,Feed Conversion Day 8-21,[1]; [21],1.621^ab
same,Lesion Scores E. acer.,[1]; [21],1.16^ab
same,Lesion Scores E. max.,[1]; [21],1.13^cd
same,Live Wt. Day 21,[1]; [21],0.638^c
same,Weight AF/G Treatment (weight adjusted feed conversion),[1]; [21],1.526
same,Weight Gain Day 0-21,[1]; [21],0.597^c
same,Weight Gain Day 8-21,[1]; [21],0.483^b
same,Feed Conversion Day 0-21,[2],1.701
same,Feed Conversion Day 8-21,[2],1.778
same,Lesion Score E. acer. Upper,[2],2.25
same,Lesion Score E. max. Middle,[2],1.50
same,Live Weight Day 21,[2],0.486
same,Weight Gain Day 0-21,[2],0.451
same,Weight Gain Day 8-21,[2],0.347
same,Invasion counts (mean ± standard error of the mean),"[3]; Application of Enzyme During Infection, Test 1, B. cereus PI-PLC 0.0403 U/mL, recombinant 0.261 U/mL, mannanase 5100 U/mL, listed as PI-PLC from Recombinant B. megateriaum",28 ± 2^b
same,Invasion counts (mean ± standard error of the mean),[3]; [22],18 ± 1^c
same,Invasion counts (mean ± standard error of the mean),[3]; [23],39 ± 4^ab
same,Invasion counts (mean ± standard error of the mean),[3]; [24],29 ± 1^b
same,Invasion counts (mean ± standard error of the mean),[3]; [25],30 ± 1^c
same,Invasion counts (mean ± standard error of the mean),[3]; [26],15 ± 0^a
same,Invasion counts (mean ± standard error of the mean),[3]; [27],17 ± 1^a
same,8-21 Day Feed Conversion (Corrected),"[4]; Trial II T3, infected, 3 U/lb",1.702
same,8-21 Day Weight Gain,"[4]; Trial II T3, infected, 3 U/lb",323.24
same,Average Intestinal Lesion Score,"[4]; Trial II T3, infected, 3 U/lb",1.120
same,8-21 Day Feed Conversion (Corrected),[4]; [28],1.732
same,8-21 Day Weight Gain,[4]; [28],324.78
same,Average Intestinal Lesion Score,[4]; [28],1.133
same,8-21 Day Feed Conversion (Corrected),"[4]; Trial II T5, infected, 30 U/lb",1.699
same,8-21 Day Weight Gain,"[4]; Trial II T5, infected, 30 U/lb",320.64
same,Average Intestinal Lesion Score,"[4]; Trial II T5, infected, 30 U/lb",0.842
same,8-21 Day Feed Conversion (Corrected),"[4]; Trial II T6, infected, 90 U/lb",1.739
same,8-21 Day Weight Gain,"[4]; Trial II T6, infected, 90 U/lb",328.29
same,Average Intestinal Lesion Score,"[4]; Trial II T6, infected, 90 U/lb",0.808
same,8-21 Day Feed Conversion (Corrected),[4]; [29],1.650
same,8-21 Day Weight Gain,[4]; [29],338.8
same,Average Intestinal Lesion Score,[4]; [29],0.847
same,"effect of varying concentrations on intestinal lesion score, feed conversion and weight gain","[4]; Trial II, T3-T6 (3-90 U/lb)",dose-dependent effect on lowering the intestinal lesion score and feed conversion (T3-T6) and increasing weight gain
same,Invasion counts (mean ± standard error of the mean),"[5]; Application of Enzyme During Infection, Test 1, B. cereus PI-PLC 0.0403 U/mL, recombinant 0.261 U/mL, listed as PI-PLC from Recombinant B. megateriaum",16 ± 2^c
same,Invasion counts (mean ± standard error of the mean),[5]; [22],36 ± 3^b
same,Invasion counts (mean ± standard error of the mean),[5]; [23],18 ± 1^bc
same,Invasion counts (mean ± standard error of the mean),[5]; [24],9 ± 2^c
same,Invasion counts (mean ± standard error of the mean),[5]; [25],14 ± 1^b
same,Invasion counts (mean ± standard error of the mean),"[5]; Cell Pretreatment with Enzyme Followed by Wash, Test 1, recombinant PI-PLC 0.0261 U/mL",18 ± 1^ab
same,Invasion counts (mean ± standard error of the mean),[5]; [26],22 ± 1^b
same,Invasion counts (mean ± standard error of the mean),[5]; [27],26 ± 1^ab
